We go through 2 compounds from patent publication US12226417B2, “Fatty liver disease treatment using glucocorticoid and mineralocorticoid receptor antagonists” (Corcept Therapeutics, Inc., priority 2014, dated 2025).

Assay [1] concerns the target T1, glucocorticoid receptor (GR) (Homo sapiens, UniProt P04150).
T1 construct: contains endogenous glucocorticoid receptors; endogenous in cells; host or cells: SW1353/MMTV-5 (human chondrosarcoma, stably transfected with pMAMneo-Luc reporter)
T1 sequence (P04150 1-777): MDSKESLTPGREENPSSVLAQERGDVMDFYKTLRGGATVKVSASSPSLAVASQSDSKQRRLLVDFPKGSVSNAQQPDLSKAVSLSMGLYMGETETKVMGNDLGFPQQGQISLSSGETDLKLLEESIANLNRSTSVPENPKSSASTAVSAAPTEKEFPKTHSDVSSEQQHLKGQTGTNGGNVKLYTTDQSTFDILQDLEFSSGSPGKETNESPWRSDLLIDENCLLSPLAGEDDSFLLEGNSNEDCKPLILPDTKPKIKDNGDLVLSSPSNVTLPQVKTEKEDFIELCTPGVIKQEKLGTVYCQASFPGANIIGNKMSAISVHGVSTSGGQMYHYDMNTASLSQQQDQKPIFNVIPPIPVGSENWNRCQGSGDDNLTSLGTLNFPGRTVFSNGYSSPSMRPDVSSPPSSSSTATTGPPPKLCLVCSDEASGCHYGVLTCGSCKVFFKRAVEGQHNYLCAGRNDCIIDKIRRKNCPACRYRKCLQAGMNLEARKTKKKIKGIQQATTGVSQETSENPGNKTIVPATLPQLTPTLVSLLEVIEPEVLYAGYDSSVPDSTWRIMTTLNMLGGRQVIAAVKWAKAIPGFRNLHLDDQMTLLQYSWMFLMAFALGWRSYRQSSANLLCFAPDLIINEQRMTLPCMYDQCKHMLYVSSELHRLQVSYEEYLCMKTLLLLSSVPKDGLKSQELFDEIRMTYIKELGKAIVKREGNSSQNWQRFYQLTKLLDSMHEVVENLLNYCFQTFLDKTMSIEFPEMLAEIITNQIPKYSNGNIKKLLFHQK
As to the kind of experiment: GR reporter gene assay using SW1353/MMTV-5 cells. Format: cell-based. Here is the method: SW1353/MMTV-5 is an adherent human chondrosarcoma cell line that contains endogenous glucocorticoid receptors. It was transfected with a plasmid (pMAMneo-Luc) encoding firefly luciferase located behind a glucocorticoid-responsive element (GRE) derived from a viral promoter (long terminal repeat of mouse mammary tumor virus). A stable cell line SW1353/MMTV-5 was selected with geneticin, which was required to maintain this plasmid.
SW1353/MMTV-5 cells were distributed in 96-well plates and incubated in medium (without geneticin) for 24 hrs.
On the technique in general: In a reporter assay the amount or activity of a reporter protein is the signal.

Assay [2] deals with T2, mineralocorticoid receptor (MR) (Homo sapiens, UniProt P08235).
T2 construct: containing endogenous mineralocorticoid and progesterone receptors (PR); endogenous in cells; host or cells: T47D/MMTV-5 (human breast carcinoma, stably transfected with pMAMneo-Luc reporter)
T2 sequence (P08235 1-984): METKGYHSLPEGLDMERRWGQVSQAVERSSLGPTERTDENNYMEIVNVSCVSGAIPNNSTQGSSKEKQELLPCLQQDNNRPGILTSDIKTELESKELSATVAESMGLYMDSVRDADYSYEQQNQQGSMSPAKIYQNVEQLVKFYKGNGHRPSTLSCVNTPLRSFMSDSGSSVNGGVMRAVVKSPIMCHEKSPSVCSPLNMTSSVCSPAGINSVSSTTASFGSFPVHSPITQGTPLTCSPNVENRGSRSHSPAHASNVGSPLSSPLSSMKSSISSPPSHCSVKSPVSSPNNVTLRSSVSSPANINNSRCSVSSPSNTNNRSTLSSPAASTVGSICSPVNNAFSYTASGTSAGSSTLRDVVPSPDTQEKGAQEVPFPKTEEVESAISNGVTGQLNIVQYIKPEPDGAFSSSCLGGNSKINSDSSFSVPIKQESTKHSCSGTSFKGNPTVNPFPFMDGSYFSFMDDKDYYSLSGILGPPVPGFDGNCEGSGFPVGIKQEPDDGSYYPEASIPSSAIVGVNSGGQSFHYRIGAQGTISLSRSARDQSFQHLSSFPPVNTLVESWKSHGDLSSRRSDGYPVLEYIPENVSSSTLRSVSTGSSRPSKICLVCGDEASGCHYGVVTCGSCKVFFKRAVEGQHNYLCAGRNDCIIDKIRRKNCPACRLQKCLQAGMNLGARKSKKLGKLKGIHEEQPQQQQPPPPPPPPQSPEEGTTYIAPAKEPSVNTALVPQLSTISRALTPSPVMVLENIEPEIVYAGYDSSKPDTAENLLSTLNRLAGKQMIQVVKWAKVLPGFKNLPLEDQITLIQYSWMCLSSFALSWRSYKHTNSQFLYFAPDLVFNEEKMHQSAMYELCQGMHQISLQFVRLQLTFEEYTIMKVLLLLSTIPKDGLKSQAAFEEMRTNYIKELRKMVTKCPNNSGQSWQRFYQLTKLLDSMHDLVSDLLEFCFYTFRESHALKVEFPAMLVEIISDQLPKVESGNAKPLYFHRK
Description: MR reporter gene assay using T47D/MMTV-5 cells. Format: cell-based. The method, then: (§1) As described for the SW1353 cell line above, T47D cells were transfected with the same pMAMneo-Luc plasmid, and stable lines were selected with geneticin.
(§2) T47D/MMTV-5 calls were distributed in 96-well plates (100 μl) in RPMI640 medium+10% charcoal stripped FCS. The cells were incubated for 24 hours in a CO2 oven.

Assay [3] deals with T3, progesterone receptor (PR) (Homo sapiens, UniProt P06401).
T3 construct: containing endogenous mineralocorticoid and progesterone receptors (PR); endogenous in cells; host or cells: T47D/MMTV-5 (human breast carcinoma, stably transfected with pMAMneo-Luc reporter)
T3 sequence (P06401 1-933): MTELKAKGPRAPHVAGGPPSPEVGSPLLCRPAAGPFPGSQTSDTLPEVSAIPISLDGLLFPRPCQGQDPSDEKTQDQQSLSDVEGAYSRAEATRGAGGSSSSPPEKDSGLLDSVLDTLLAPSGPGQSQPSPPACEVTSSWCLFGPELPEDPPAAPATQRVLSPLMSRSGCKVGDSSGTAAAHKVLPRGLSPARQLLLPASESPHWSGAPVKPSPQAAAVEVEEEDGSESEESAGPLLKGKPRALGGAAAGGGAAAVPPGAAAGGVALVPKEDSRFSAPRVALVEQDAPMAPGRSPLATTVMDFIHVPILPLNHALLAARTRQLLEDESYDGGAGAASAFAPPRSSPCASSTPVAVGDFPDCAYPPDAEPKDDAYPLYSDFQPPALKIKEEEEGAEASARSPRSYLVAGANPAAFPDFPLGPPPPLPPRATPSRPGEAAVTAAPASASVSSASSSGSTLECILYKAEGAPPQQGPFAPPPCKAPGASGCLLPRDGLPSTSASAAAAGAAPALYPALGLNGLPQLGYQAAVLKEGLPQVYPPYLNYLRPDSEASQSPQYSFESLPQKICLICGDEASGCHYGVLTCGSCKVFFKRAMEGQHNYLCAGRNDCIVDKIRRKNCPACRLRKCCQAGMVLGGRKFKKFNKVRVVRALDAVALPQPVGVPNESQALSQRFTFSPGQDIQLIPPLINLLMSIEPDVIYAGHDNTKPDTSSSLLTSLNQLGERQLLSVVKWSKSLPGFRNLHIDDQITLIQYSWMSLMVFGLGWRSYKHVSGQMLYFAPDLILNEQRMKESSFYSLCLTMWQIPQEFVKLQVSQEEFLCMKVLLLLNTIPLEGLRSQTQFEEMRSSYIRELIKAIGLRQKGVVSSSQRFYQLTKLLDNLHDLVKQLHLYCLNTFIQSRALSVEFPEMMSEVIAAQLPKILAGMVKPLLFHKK
As to the kind of experiment: PR reporter gene assay using T47D/MMTV-5 cells. Format: cell-based. Conditions: antagonist mode, 50 nM progesterone. Here is the method:
as §1, §2

Assay [4] relates to C57B16/J mice given a high fat diet. As to the kind of experiment: Determination of liver lipids in mice fed a high fat diet (Oil Red O staining). Format: in vivo, mouse. Conditions: high fat diet (60% fat) three weeks; for fatty liver compared to the controls: 60 mg/kg/day in the food. Here is the method:
C57B16/J mice (n=8 per group) were given a high fat diet (60% fat) for three weeks and then sacrificed. Livers were collected and weighed. Liver slices were prepared and analysed for lipid levels by Oil Red 0 staining (FIGS. 1 and 3). One group of mice received Compound 1 mixed in the food (60 mg/kg/day) whilst another group of mice received vehicle mixed in the food. […] Compound 1 has GR antagonist activity and some MR antagonist activity.

Another assay deals with T4, human recombinant GR (Homo sapiens, UniProt P04150).
T4 construct: β-galactosidase enzyme fragment (complementation partner); host or cells: CHO-K1
T4 sequence (P04150 1-777): T1 sequence (P04150 1-777)
As to the kind of experiment: GR protein:protein interaction assay (DiscoveRx, CHO-K1, PGC1α). Format: cell-based. From the text: (§3) Protein:protein interaction assays were used to determine the ability of test compounds to act as antagonists of the glucocorticoid receptor and/or mineralocorticoid receptor. These assays utilize a commercial assay platform provided by DiscoveRx Corp. (Fremont, CA). DiscoveRx technology is based on β-galactosidase enzyme fragment complementation using a luminogenic substrate. Briefly, Chinese hamster ovary cells (CHO-K1) have been engineered to express either human recombinant GR or MR together with a steroid responsive coactivator protein (SRCP) called PGC1α (peroxisome proliferator activated receptor gamma coactivator lα). The assay measures the net outcome of GR or MR activation, i.e., nuclear translocation from the cytoplasm and interaction of the GR or MR with the coactivator PGC1α in the cell nucleus. The assay can be configured in both agonist and antagonist modes.
The cells (100 μl) were plated into 96 well plates and placed in a 37° C., 5% CO2 incubator for 24 hours. After removing the cells from the incubator, 5 μl of test compound or vehicle was added to each well, and the plates were incubated for 1 hour at 37° C., 5% CO2. […] The detection reagent was added, 55 μl per well, and the plates were incubated at room temperature in the dark without mixing. The plates were read for luminescence using an EnVision® plate reader (3 hour read).

Another assay addresses T5, human recombinant MR (Homo sapiens, UniProt P08235).
T5 construct: β-galactosidase enzyme fragment (complementation partner); host or cells: CHO-K1
T5 sequence (P08235 1-984): T2 sequence (P08235 1-984)
Description: MR protein:protein interaction assay (DiscoveRx, CHO-K1, PGC1α). Format: cell-based.
Source text: as §3
The cells (100 μl) were plated into 96 well plates and placed in a 37° C., 5% CO2 incubator for 24 hours. After removing the cells from the incubator, 5 μl of test compound or vehicle was added to each well, and the plates were incubated for 1 hour at 37° C., 5% CO2. […] The detection reagent was added, 55 μl per well, and the plates were incubated at room temperature in the dark without mixing. The plates were read for luminescence using an EnVision® (Perkin Elmer, Walthan, MA) plate reader (3 hour read).

By Ki is commonly meant the equilibrium dissociation constant of an inhibitor or competing ligand from its target. In the case of `O=c1[nH]c(=O)c(Cc2cccc(C(F)(F)F)c2)c([C@H]2CC[C@H](c3ccccc3)CC2)[nH]1` [Compound 1, (E)-6-(4-phenylcyclohexyl)-5-(3-trifluoromethylbenzyl)-1H-pyrimidine-2,4-dione], the Ki in assay [1] is 24 nM; in assay [2], 148 nM; on human recombinant GR, 118 nM; at human recombinant MR, 125 nM. In addition, the “activity in progesterone receptor reporter gene assay” value in assay [3] was “inactive”. Also, the “fatty liver compared to the controls” value in assay [4] was “did not induce fatty liver”. Also, in assay [4] (60 mg/kg/day mixed in the food, versus vehicle control), the “lipid droplets in livers (Oil Red O staining)” value was “no or low level of lipid droplets”.
As for `CC#C[C@]1(O)CC[C@H]2[C@@H]3CCC4=CC(=O)CCC4=C3[C@@H](c3ccc(N(C)C)cc3)C[C@@]21C` [mifepristone, reference compound], the “fatty liver compared to the controls” value in assay [4] was “increased fatty liver compared to the controls”.
